Experimental data: patent US11952328B2, “Selective ship inhibitors for treating disease” (THE RESEARCH FOUNDATION FOR THE STATE UNIVERSITY OF NEW YORK, priority 2018, dated 2024)
Entries after “also recorded” stand apart in the source; their conditions may differ.

Tested on: RMA-Rael cells
Test: RMA-Rael viability following in vitro treatment
Format: cell-based, mice
Conditions: 24 h, doses given as 5-20 pM, vs solvent only
Description: FIGS. 5A-5I show the effects of SHIP1 inhibitor as a chemotherapeutic. […] FIG. 5D and FIG. 5E show the representative histograms and box-and-whisker plots of FasL expression by NK cells from C56BL/6 (p=0.0002; Unpaired t test with Welch's correction) or RAG1−/− (p<0.0001; Mann-Whitney U test) tumor challenged, SHIP inhibitor or vehicle treated hosts. […] (NK cells p=0.0192; Unpaired t test with Welch's correction. T cells p=0.0659; Mann-Whitney U test). Additionally, FIGS. 5A-5G show the analysis by flow cytometry on day 3 after hosts receive SHIP inhibitor or vehicle for two consecutive days. NK cells are defined as NK1.1+CD3ε−. The graphs are representative of at least two independent experiments with at least four SHIP inhibitor and vehicle treated mice. […] Viability is expressed as frequency at a given concentration expressed as a percentage of solvent only treated cells. The kill curve summarizes pooled data from three independent experiments using six replicate wells/concentration with mean ±SEM indicated (n=18 per group. One-way ANOVA with Dunnett's multiple comparisons. 0 pM vs. 20 pM Adjusted p value =0.0001. 0 pM vs. 15 pM Adjusted p value =0.0001. 0 pM vs. 10 pM Adjusted p value =0.0001. 0 pM vs. 7.5 pM Adjusted p value =0.0001. 0 pM vs. 5 pM Adjusted p value =0.0001). […]

CC(C)CCC[C@@H](C)[C@H]1CC[C@H]2[C@@H]3CCC4C[C@H](N)CC[C@]4(C)[C@H]3CC[C@]12C (stereo partly drawn) [Compound 3AC, 3-α-aminocholestane] was tested, and the “RMA-Rael viability (direct killing)” value was “capable of directly killing RMA-Rael cells; also recorded: cytotoxic”.
